{"source": "patent US20190322643A1", "about": "(Georgia State University Research Foundation, Inc., priority 2016, published 2019)", "key": {"HDAC [1]": {"test_system": "HDAC", "test": "Cell based homogenous HDAC assay, A549", "details": "read-out: IC50-HDAC A549; A549 cells, mean ± SD of triplicate", "method": "(§2) After 24 h, 9 μl inhibitors with different concentration were added to the HeLa cells and incubation was continued for 3 h under cell culture conditions. After this treatment period, 10 μl of a 2 mM stock solution of the substrate Boc-K(Ac)-AMC was added into the 96 well plates with Hela cells and inhibitors. […] A549 and K562 cell lines used the same method, respectively. IC50s were calculated using GraphPad Prizm statistical package with sigmoidal variable slope dose response curve fit.\n(§3) Boc-K(Ac)-AMC was used as a cell-permeable HDAC substrate, as after deacetylation it is cleaved by trypsin to release the florescent 7-amino-4-methylcoumarin (AMC)."}, "HDAC [2]": {"test_system": "HDAC", "test": "Cell based homogenous HDAC assay, K562", "details": "read-out: IC50-HDAC K562; K562 cells, mean ± SD of triplicate", "method": "as §2, §3"}, "MCF-7": {"test_system": "MCF-7", "test": "Cytotoxicity / anti-proliferation assay (CCK-8), MCF-7", "format": "cell-based", "details": "Homo sapiens, MCF7; 72 h, CCK-8 kit", "procedure": "Then the cells were exposed to the different inhibitors with various concentrations for 72 h. […] EC50s were calculated using GraphPad Prizm statistical package with sigmoidal variable slope dose response curve fit.\n(§1) Cell anti-proliferation assays were performed to determine the toxicity of these inhibitors. […] These compounds were further evaluated against the control cell line HEK293 to test their toxicity with a non-cancerous cell line."}, "MDA-MB-231": {"test_system": "MDA-MB-231", "test": "Cytotoxicity / anti-proliferation assay (CCK-8), MDA-MB-231", "format": "cell-based", "details": "Homo sapiens, 72 h, CCK-8 kit, read-out: EC50 MDA-MB-231", "procedure": "A549, MDA-MB-231, HCT-8, MCF-7, and HEK293 cells were seeded at 8000-10000 cells (100 μl) in white 96-well plates and pre-incubate the plate for 24 h under standard cell culture conditions, respectively. Then the cells were exposed to the different inhibitors with various concentrations for 72 h. Finally, 10 μl of CCK-8 kit solution was added to each well and incubated for 3-4 hours under standard cell culture conditions, and the 96 well plates were measured the absorbance at 450 nm using Perkin-Elmer Wallac Victor ^3V 1420 multi label plate reader (Perkin-Elmer, Wellesley, USA). EC50s were calculated using GraphPad Prizm statistical package with sigmoidal variable slope dose response curve fit.\nas §1, with “inhibitors. Several cell lines (MDA-MB-231, MCF-7, A549 and HCT-8) were incubated and then treated with varying concentrations of the inhibitors for 72 h, respectively.” for “inhibitors.”"}, "G9a": {"molecular_target": "T1, G9a (Homo sapiens, UniProt Q96KQ7)", "T1 construct": "endogenous in cells; host or cells: MDA-MB-231", "T1 sequence (Q96KQ7 1-1210)": "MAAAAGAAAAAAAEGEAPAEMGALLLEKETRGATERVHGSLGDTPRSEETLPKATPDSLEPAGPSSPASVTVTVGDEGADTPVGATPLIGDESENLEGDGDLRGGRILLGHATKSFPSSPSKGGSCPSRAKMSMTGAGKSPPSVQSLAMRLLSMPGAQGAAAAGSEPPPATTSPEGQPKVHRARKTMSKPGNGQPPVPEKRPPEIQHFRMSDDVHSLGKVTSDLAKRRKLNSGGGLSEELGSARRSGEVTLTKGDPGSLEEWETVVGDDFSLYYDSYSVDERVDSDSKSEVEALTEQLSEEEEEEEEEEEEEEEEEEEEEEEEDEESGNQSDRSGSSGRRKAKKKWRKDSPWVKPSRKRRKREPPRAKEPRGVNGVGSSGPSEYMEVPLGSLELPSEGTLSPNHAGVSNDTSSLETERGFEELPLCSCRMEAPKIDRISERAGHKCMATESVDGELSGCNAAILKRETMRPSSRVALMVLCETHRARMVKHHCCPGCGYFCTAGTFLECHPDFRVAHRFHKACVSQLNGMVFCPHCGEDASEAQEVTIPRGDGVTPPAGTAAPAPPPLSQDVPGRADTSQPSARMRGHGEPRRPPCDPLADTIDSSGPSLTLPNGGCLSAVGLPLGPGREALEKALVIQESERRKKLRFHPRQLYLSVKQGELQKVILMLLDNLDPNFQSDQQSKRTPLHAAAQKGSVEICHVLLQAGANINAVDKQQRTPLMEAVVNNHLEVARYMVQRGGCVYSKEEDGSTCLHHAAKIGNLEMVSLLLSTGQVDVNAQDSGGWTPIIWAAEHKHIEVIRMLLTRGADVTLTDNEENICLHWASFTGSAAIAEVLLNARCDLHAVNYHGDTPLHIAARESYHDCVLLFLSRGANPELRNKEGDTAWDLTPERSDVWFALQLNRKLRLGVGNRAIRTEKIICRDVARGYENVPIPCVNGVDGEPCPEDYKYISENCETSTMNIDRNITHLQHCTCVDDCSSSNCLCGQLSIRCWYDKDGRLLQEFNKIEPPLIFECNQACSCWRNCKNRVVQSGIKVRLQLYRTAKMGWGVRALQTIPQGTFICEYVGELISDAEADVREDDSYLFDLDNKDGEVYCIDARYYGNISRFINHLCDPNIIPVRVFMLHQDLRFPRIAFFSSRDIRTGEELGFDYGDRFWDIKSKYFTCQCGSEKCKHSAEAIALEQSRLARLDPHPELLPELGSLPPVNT", "test": "H3K9Me2 cell immunofluorescence in-cell Western (ICW) assay", "format": "cell-based", "details": "MDA-MB-231 cell line, 48 h"}}, "data": [{"smiles": "CN1CCCN(c2nc(NC3CCN(Cc4ccccc4)CC3)c3ccc(OCCCCCCC(=O)NO)cc3n2)CC1", "note": "[Compound 30]", "values": [{"measurement": "IC50", "setting": "HDAC [1]", "value": "> 100", "unit": "µM"}, {"measurement": "IC50", "setting": "HDAC [2]", "value": "> 100", "unit": "µM"}, {"measurement": "EC50", "setting": "MCF-7", "value": "> 100", "unit": "µM"}, {"measurement": "EC50", "setting": "MDA-MB-231", "value": "24 ± 3.64", "unit": "µM"}, {"measurement": "IC50", "setting": "G9a", "value": "> 100", "unit": "µM"}]}]}
